ChEMBL document CHEMBL1177684, “Synthesis, molecular modeling, and biological evaluation of cinnamic acid metronidazole ester derivatives as novel anticancer agents” (Bioorg Med Chem, 2010)
pIC50: −log10 of the molar value.

Tests used:
MCF7 = test: Antiproliferative activity against human MCF7 cells after 48 hrs by MTT assay; conditions: MCF7, 48 h
[1] = biological target: Epidermal growth factor receptor (Homo sapiens, UniProt P00533)
Description: Inhibition of human recombinant His6x-tagged EGFR autophosphorylation expressed in Sf9 cells after 1 hr by ELISA

[2] = biological target: Receptor tyrosine-protein kinase erbB-2 (Homo sapiens, UniProt P04626)
Receptor tyrosine-protein kinase erbB-2, sequence (P04626 whole entry): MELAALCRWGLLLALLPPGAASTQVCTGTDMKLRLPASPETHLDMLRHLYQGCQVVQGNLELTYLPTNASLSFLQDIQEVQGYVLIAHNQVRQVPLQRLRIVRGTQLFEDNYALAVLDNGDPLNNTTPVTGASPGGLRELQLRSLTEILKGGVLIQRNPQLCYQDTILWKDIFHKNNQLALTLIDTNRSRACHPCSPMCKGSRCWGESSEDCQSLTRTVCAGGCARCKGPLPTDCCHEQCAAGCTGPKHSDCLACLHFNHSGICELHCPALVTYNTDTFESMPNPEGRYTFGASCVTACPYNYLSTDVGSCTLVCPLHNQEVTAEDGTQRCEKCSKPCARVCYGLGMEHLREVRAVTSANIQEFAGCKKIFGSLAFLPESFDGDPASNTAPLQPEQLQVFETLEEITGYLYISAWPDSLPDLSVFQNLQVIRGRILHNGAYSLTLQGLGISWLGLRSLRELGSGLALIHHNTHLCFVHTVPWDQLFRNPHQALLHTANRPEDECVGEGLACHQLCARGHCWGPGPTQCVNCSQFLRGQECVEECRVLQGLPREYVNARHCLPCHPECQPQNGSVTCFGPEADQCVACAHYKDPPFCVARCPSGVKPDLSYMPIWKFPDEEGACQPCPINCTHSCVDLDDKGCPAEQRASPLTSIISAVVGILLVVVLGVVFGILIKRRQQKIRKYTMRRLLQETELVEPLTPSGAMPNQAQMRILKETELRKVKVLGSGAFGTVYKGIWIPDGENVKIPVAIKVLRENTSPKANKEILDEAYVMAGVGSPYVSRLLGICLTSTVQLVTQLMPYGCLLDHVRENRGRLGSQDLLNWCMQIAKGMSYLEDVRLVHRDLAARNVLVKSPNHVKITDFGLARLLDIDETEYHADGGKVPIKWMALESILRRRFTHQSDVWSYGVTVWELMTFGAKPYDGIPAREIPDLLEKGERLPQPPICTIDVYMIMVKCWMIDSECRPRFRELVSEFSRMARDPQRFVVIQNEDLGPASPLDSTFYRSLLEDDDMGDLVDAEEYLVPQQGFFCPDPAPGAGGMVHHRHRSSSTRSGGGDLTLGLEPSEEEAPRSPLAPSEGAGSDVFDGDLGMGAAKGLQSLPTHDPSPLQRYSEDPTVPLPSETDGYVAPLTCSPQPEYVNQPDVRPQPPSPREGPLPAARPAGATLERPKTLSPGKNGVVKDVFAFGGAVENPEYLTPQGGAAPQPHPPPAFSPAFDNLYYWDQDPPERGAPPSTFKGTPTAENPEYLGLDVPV
Description: Inhibition of human recombinant His6x-tagged HER2 autophosphorylation expressed in Sf9 cells after 1 hr by ELISA

Epidermal growth factor receptor, sequence (P00533 whole entry): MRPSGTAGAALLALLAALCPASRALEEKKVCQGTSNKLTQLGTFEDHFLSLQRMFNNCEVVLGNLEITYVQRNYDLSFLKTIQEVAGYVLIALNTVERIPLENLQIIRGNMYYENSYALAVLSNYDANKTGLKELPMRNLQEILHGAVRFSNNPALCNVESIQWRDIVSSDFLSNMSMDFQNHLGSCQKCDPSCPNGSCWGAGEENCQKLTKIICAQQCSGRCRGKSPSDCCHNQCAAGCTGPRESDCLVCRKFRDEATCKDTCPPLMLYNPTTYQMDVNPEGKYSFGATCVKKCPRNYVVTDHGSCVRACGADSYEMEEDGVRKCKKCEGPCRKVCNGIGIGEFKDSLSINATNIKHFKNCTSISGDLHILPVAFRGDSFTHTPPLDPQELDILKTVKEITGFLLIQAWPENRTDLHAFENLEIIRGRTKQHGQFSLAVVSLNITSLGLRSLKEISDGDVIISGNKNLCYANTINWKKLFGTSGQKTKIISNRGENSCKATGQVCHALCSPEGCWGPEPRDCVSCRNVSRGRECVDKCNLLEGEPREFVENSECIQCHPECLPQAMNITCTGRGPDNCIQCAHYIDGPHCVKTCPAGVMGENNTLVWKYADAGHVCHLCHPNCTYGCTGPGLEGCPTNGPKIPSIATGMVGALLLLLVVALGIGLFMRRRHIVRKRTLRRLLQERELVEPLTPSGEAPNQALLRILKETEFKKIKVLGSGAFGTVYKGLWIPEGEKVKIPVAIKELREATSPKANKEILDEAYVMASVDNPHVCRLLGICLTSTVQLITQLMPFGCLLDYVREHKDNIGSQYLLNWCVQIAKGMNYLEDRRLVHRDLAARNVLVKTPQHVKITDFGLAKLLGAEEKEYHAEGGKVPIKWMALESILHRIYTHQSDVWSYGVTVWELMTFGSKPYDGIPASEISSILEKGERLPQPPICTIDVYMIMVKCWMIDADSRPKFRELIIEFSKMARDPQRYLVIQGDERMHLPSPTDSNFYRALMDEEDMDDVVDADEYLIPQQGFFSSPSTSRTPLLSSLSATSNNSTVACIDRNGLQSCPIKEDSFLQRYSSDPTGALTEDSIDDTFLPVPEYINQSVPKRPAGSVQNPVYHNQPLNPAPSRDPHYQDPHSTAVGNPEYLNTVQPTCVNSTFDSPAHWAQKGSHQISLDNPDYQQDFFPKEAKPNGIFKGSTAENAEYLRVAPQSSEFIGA

SMILES	pIC50 (MCF7)	pIC50 [1]	pIC50 [2]
Cc1ncc([N+](=O)[O-])n1CCOC(=O)/C=C/c1ccccc1Cl	4.74	4.68	4.44
Cc1ncc([N+](=O)[O-])n1CCOC(=O)/C=C/c1ccccc1F	4.82	4.57	4.38
Cc1ncc([N+](=O)[O-])n1CCOC(=O)/C=C/c1ccc(-c2ccccc2)cc1	6.44	6.21	5.67
Cc1ncc([N+](=O)[O-])n1CCOC(=O)/C=C/c1ccc(C(C)C)cc1	5.30	5.17	5.00
Cc1ncc([N+](=O)[O-])n1CCOC(=O)/C=C/c1ccc(OCc2ccccc2)cc1	–	–	5.46
Cc1ccc(/C=C/C(=O)OCCn2c([N+](=O)[O-])cnc2C)cc1	5.37	5.09	5.02
COc1cccc(/C=C/C(=O)OCCn2c([N+](=O)[O-])cnc2C)c1	5.24	4.86	4.73
Cc1ncc([N+](=O)[O-])n1CCOC(=O)/C=C/c1ccc(Cl)cc1	5.52	5.44	5.32
Cc1ncc([N+](=O)[O-])n1CCOC(=O)/C=C/c1ccc(Br)cc1	5.61	5.49	5.33
COc1ccccc1/C=C/C(=O)OCCn1c([N+](=O)[O-])cnc1C	4.70	4.49	< 4.30
Cc1ncc([N+](=O)[O-])n1CCOC(=O)/C=C/c1ccccc1[N+](=O)[O-]	4.77	4.60	4.40
Cc1ncc([N+](=O)[O-])n1CCOC(=O)/C=C/c1cccc2ccccc12	5.47	5.41	5.30
Cc1ncc([N+](=O)[O-])n1CCOC(=O)/C=C/c1ccc(F)cc1	5.42	5.39	5.23
COc1ccc(/C=C/C(=O)OCCn2c([N+](=O)[O-])cnc2C)cc1	5.26	4.96	4.84
Cc1ncc([N+](=O)[O-])n1CCOC(=O)/C=C/c1ccccc1	5.36	5.11	4.97
Cc1ncc([N+](=O)[O-])n1CCOC(=O)/C=C/c1cccc(F)c1	5.23	4.91	4.78
Cc1ncc([N+](=O)[O-])n1CCOC(=O)/C=C/c1cccc([N+](=O)[O-])c1	5.25	4.84	4.71
Cc1ncc([N+](=O)[O-])n1CCOC(=O)/C=C/c1ccccc1Br	4.80	4.61	4.35
Cc1ncc([N+](=O)[O-])n1CCOC(=O)/C=C/c1ccc2ccccc2c1	5.39	5.24	5.03
